The values below come from paper PMC8896685 (PLoS ONE, 2022).

One test relates to DIO rats. As to the kind of experiment: Subchronic effect on body weight, body composition and food intake in DIO rats. The format is in vivo, rat. To be noted: three weeks; for Weight loss: 3 nmol/kg each compound s.c. once daily; for Cumulative food intake: 3 nmol/kg s.c. once daily. The text has this:
Male C57Bl/6J mice were purchased from Jackson Lab (Bar Harbour, ME) or Taconic, (Denmark). Male Sprague Dawley rats were purchased from Taconic (Denmark). Lean animals were fed regular chow diet (Altromin 1324, Brogaarden, Denmark). Obese animals were fed a high-fat diet, 45% kcal from fat (D12492, Research Diets, New Brunswick, NJ) from the age of 4–6 weeks in order to obtain a diet induced obese (DIO) phenotype. Animals were housed under temperature and humidity-controlled conditions in a 12:12 hr light:dark cycle (lights on at 6 a.m.). Rats were housed three per cage during high fat feeding and were single housed five weeks prior to study. Mice were single housed, two per cage, with a partitioning wall where possible. All animals had ad libitum access to diet and water, except when fasted prior to experimental procedures. Animals were acclimatized to study conditions (energy expenditure cages, daily mock handling etc) at least one week prior to first dose. […] At the time of study, animals were 20–30 weeks old with a body weight of 45–50 g (DIO mice) or approximately 600 g (DIO rats). […] Oral glucose tolerance was evaluated on study day 15, 5 h post-dosing (at Cmax). Animals were fasted for 5 h prior to oral administration of glucose (3 g/kg). […] Conscious animals were MR-scanned prior to initiation of treatment and at the end of the treatment period.

Another test has as its target Human GLP-1R (Homo sapiens, UniProt P43220). The test is described as follows: Receptor binding, SPA competitive binding assay. To be noted: for IC50: SPA competitive binding on BHK cell membranes, [125I]-GLP-1(7–36)-NH2 tracer, 1% species specific plasma, 2 h 30°C, value (95% CI). As for the experimental part: (§1) The binding assay was performed on cell membranes in the presence of 1% (v/v) species-specific heparin-treated pooled plasma (Bioreclamation IVT, Westbury, NY) diluted in assay buffer (50 mM HEPES supplemented with 5 mM EGTA, 5 mM MgCl2, and 0.005% (v/v) Tween 20, pH7.4). […] Cells stably expressing an individual receptor of interest were grown at 5% CO2, 37°C in DMEM (supplemented with 10% FCS, 0.5 mg/ml G418 and 0.3 mg/ml hygromycin). Membrane preparations were made from cells harvested at approximately 80% confluence, washed and homogenized in 20 mM HEPES with 0.1 mM EDTA, pH 7.4. Protein concentration was determined, and the membranes were stored at -80°C until use. The membrane binding assay was performed in a 96-well OptiPlate (PerkinElmer) in a total volume of 200 μl. Test compounds were dissolved in 80% DMSO and further diluted in assay buffer. 50 μl of diluted plasma was added to the assay plate wells followed by addition of test compounds (25 μl), cell membranes (50 μl, 0.06 mg/ml), SPA beads (20 mg/ml in assay buffer) and radioligand (60,000 cpm/well, corresponding to 0.06 nM; 2200 Ci/mmol. Each assay plate was incubated for 2 h at 30°C, centrifuged at 1500 rpm for 10 minutes and counted in a TopCount NXT instrument (PerkinElmer).
(§2) For the receptor binding assays, logIC50 values were calculated using non-linear regression analysis. The error estimation was reported as the 95% confidence interval. […] The calculations were performed in GraphPad Prism 6.4 (GraphPad, San Diego, CA) and error estimation was expressed as the 95% confidence interval. […] Averages, error estimation, ratios and plasma shifts were all calculated on logIC50 or logEC50 values and transformed to the anti-log values for reporting purposes.

In the next test the target is T1, Human GCGR (Homo sapiens, UniProt P47871).
T1 construct: a plasmid encoding either the glucagon receptor or the GLP-1 receptor from the relevant species; expressed in transfected cells
The test is described as follows: Receptor binding, SPA competitive binding assay. To be noted: SPA competitive binding on BHK cell membranes, [125I]-glucagon tracer, 1% species specific plasma, 2 h 30°C; value (95% CI). Here is the method:
as §1, §2

For another test, the target named is T2, Mouse GLP-1R (Mus musculus, UniProt O35659).
T2 construct: a plasmid encoding either the glucagon receptor or the GLP-1 receptor from the relevant species; expressed in transfected cells
T2 sequence (O35659 22-463): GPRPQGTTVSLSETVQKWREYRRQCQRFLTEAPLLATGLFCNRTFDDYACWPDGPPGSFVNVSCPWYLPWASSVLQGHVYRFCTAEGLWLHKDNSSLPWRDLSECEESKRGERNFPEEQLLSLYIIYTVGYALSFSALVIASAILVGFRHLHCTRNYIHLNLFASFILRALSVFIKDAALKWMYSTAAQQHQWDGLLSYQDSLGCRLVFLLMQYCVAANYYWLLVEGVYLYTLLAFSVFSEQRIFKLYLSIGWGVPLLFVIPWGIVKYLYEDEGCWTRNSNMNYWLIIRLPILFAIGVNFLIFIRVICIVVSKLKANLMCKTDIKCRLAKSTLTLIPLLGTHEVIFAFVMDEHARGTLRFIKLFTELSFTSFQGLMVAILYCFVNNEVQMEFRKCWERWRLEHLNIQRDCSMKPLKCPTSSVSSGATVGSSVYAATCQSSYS
As to the kind of experiment: Receptor binding, SPA competitive binding assay. To be noted: SPA competitive binding on BHK cell membranes, [125I]-GLP-1(7–36)-NH2 tracer, 1% species specific plasma, 2 h 30°C; value (95% CI). Here is the method: as §1, §2

The next test concerns the target T3, Rat GLP-1R (Rattus norvegicus, UniProt P32301).
T3 construct: a plasmid encoding either the glucagon receptor or the GLP-1 receptor from the relevant species; expressed in transfected cells
T3 sequence (P32301 22-463): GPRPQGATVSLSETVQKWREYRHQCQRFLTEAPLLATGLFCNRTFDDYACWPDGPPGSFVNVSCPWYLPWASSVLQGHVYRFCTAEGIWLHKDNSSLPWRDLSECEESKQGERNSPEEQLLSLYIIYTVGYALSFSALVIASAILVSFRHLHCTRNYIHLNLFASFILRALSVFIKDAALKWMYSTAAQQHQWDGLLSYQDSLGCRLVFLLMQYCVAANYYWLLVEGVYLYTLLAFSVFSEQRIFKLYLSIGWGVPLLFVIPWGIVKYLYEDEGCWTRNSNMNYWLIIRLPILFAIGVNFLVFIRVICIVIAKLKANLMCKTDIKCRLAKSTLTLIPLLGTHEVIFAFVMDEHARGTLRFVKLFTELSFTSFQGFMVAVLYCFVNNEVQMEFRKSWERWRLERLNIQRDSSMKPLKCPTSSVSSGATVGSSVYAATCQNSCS
The test is described as follows: Receptor binding, SPA competitive binding assay. To be noted: SPA competitive binding on BHK cell membranes, [125I]-GLP-1(7–36)-NH2 tracer, 1% species specific plasma, 2 h 30°C; value (95% CI). As for the experimental part: as §1, §2

The structures appear in SMILES notation. Numbered stars: 1 amine (or outer) side, 2 acyl side, 3 side chain; on linkers, the order of the positions; unused ones are H or OH. Square brackets hold non-standard residues; d marks the D form. Side chains are listed from the residue outwards. Peptide text beside a SMILES is read from it. * marks the point of attachment. C18 diacid = O=C(O)CCCCCCCCCCCCCCCCC(=O)*; γGlu = O=C(O)[C@H](CCC(=O)[*:2])N[*:1]; Desaminohistidyl = O=C(CCc1c[nH]cn1)*; Ac4c = NC1(C(=O)O)CCC1; AEEA = NCCOCCOCC(=O)O; Aib = CC(C)(N)C(=O)O

Chain of Human GLP-1R (P43220 24-463): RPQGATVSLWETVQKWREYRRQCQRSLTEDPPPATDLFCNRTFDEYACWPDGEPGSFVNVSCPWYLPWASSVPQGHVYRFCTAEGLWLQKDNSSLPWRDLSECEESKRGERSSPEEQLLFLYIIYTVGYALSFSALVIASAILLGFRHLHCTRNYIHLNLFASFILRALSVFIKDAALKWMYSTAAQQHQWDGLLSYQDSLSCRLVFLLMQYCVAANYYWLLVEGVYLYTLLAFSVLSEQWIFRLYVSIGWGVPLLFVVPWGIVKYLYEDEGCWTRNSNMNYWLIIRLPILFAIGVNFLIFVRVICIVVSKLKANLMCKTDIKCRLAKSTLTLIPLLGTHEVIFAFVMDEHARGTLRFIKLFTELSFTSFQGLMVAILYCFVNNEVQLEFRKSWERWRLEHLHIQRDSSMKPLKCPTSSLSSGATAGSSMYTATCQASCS
T1 sequence (P47871 26-477): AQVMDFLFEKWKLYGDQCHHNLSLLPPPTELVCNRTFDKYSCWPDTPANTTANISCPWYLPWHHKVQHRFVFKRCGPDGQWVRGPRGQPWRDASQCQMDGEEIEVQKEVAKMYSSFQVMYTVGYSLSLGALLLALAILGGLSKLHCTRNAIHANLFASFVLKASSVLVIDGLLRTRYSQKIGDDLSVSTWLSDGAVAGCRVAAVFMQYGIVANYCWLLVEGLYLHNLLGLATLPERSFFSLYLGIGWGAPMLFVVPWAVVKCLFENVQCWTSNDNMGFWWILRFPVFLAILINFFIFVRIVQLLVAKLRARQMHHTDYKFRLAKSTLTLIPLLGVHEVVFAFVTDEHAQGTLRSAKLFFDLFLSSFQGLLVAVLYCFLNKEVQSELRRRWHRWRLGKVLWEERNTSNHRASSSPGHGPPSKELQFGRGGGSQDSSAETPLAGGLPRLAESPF

Regarding `CC(C)C[C@H](NC(=O)[C@H](CC(C)C)NC(=O)[C@H](Cc1c[nH]c2ccccc12)NC(=O)[C@H](CCC(N)=O)NC(=O)[C@@H](NC(=O)[C@H](Cc1ccccc1)NC(=O)[C@H](CCC(=O)O)NC(=O)[C@H](CCCNC(=N)N)NC(=O)[C@H](C)NC(=O)[C@H](C)NC(=O)[C@H](CCCNC(=N)N)NC(=O)[C@H](CO)NC(=O)[C@H](CC(=O)O)NC(=O)[C@H](CC(C)C)NC(=O)[C@H](Cc1ccc(O)cc1)NC(=O)[C@H](CCCCN)NC(=O)[C@H](CO)NC(=O)[C@H](CC(C)C)NC(=O)[C@H](CC(=O)O)NC(=O)[C@H](CO)NC(=O)[C@@H](NC(=O)[C@H](Cc1ccccc1)NC(=O)[C@@H](NC(=O)CNC(=O)[C@H](CCC(=O)O)NC(=O)C(C)(C)NC(=O)[C@@H](N)Cc1c[nH]cn1)[C@@H](C)O)[C@@H](C)O)C(C)C)C(=O)N[C@@H](CC(N)=O)C(=O)N[C@@H](CCCCNC(=O)CC[C@H](NC(=O)CC[C@H](NC(=O)COCCOCCNC(=O)COCCOCCNC(=O)CC[C@H](NC(=O)CCCCCCCCCCCCCCCCC(=O)O)C(=O)O)C(=O)O)C(=O)O)C(N)=O` [GLP-1 reference] (H-H[Aib]EGTFTSDLSKYLDSRAAREFVQWLLNK([γGlu-γGlu-AEEA-AEEA-γGlu-C18 diacid])-NH2), in the test with DIO rats, the Weight loss is 5% and the Cumulative food intake result is “equal reduction”.

As to `CC(C)C[C@H](NC(=O)[C@H](CC(=O)O)NC(=O)[C@H](CC(C)C)NC(=O)[C@H](Cc1ccc(O)cc1)NC(=O)[C@H](CCCCN)NC(=O)[C@H](CO)NC(=O)[C@H](CC(C)C)NC(=O)[C@H](CC(=O)O)NC(=O)[C@H](CO)NC(=O)[C@@H](NC(=O)[C@H](Cc1ccccc1)NC(=O)[C@@H](NC(=O)CNC(=O)[C@H](CCC(N)=O)NC(=O)C1(NC(=O)[C@@H](N)Cc2c[nH]cn2)CCC1)[C@@H](C)O)[C@@H](C)O)C(=O)N[C@@H](CCCNC(=N)N)C(=O)N[C@@H](CCCNC(=N)N)C(=O)N[C@@H](C)C(=O)N[C@@H](CCCNC(=N)N)C(=O)N[C@@H](CC(=O)O)C(=O)N[C@@H](Cc1ccccc1)C(=O)N[C@H](C(=O)N[C@@H](CCC(N)=O)C(=O)N[C@@H](Cc1c[nH]c2ccccc12)C(=O)N[C@@H](CC(C)C)C(=O)N[C@@H](CC(C)C)C(=O)N[C@@H](CCCCNC(=O)CC[C@H](NC(=O)CC[C@H](NC(=O)COCCOCCNC(=O)COCCOCCNC(=O)CC[C@H](NC(=O)CC[C@H](NC(=O)CCCCCCCCCCCCCCCCC(=O)O)C(=O)O)C(=O)O)C(=O)O)C(=O)O)C(=O)N[C@H](C(N)=O)[C@@H](C)O)C(C)C` [NN1151] (H-H[Ac4c]QGTFTSDLSKYLDLRRARDFVQWLLK([γGlu-γGlu-AEEA-AEEA-γGlu-γGlu-C18 diacid])T-NH2), the IC50 on Human GLP-1R stood at 1.52 nM; at Human GCGR it was 0.81 nM; on Mouse GLP-1R, 1.87 nM; on Rat GLP-1R, 1.72 nM.

Consider `CC(C)C[C@H](NC(=O)[C@H](Cc1ccc(O)cc1)NC(=O)[C@H](CCCCN)NC(=O)[C@H](CO)NC(=O)[C@H](CC(C)C)NC(=O)[C@H](CC(=O)O)NC(=O)[C@H](CO)NC(=O)[C@@H](NC(=O)[C@H](Cc1ccccc1)NC(=O)[C@@H](NC(=O)CNC(=O)[C@H](CCC(N)=O)NC(=O)C(C)(C)NC(=O)[C@@H](N)Cc1c[nH]cn1)[C@@H](C)O)[C@@H](C)O)C(=O)N[C@@H](CCC(=O)O)C(=O)N[C@@H](CO)C(=O)N[C@@H](CCCCN)C(=O)N[C@@H](CCCNC(=N)N)C(=O)N[C@@H](C)C(=O)N[C@@H](CCCNC(=N)N)C(=O)N[C@@H](CCC(=O)O)C(=O)N[C@@H](Cc1ccccc1)C(=O)N[C@H](C(=O)N[C@@H](CCC(N)=O)C(=O)N[C@@H](Cc1c[nH]c2ccccc12)C(=O)N[C@@H](CC(C)C)C(=O)N[C@@H](CC(C)C)C(=O)N[C@@H](CCCCNC(=O)CC[C@H](NC(=O)CC[C@H](NC(=O)[C@H](CO)NC(=O)[C@H](CCC(=O)O)NC(=O)[C@H](CO)NC(=O)CC[C@H](NC(=O)CC[C@H](NC(=O)CCCCCCCCCCCCCCCCC(=O)O)C(=O)O)C(=O)O)C(=O)O)C(=O)O)C(=O)N[C@H](C(N)=O)[C@@H](C)O)C(C)C` [NN1177] (H-H[Aib]QGTFTSDLSKYLESKRAREFVQWLLK([γGlu-γGlu-Ser-Glu-Ser-γGlu-γGlu-C18 diacid])T-NH2), for which the Weight loss in the test on DIO rats is listed as 20%. Further, the Cumulative food intake entry with DIO rats was “equal reduction”. The IC50 at Human GLP-1R is 0.64 nM; at Human GCGR, 2.54 nM; at Mouse GLP-1R, 0.11 nM; on Rat GLP-1R, 0.17 nM. Besides, the “Binding affinity to GLP-1 receptors relative to glucagon receptors” value at Human GLP-1R (across human, mouse and rat receptor binding assays, 1% plasma) was “two-to four-fold”.

`CC[C@H](C)[C@H](NC(=O)[C@H](Cc1ccccc1)NC(=O)[C@H](CCC(=O)O)NC(=O)[C@H](CCCNC(=N)N)NC(=O)[C@H](C)NC(=O)[C@H](C)NC(=O)[C@H](CCC(N)=O)NC(=O)[C@H](CCC(=O)O)NC(=O)[C@H](CCC(=O)O)NC(=O)[C@H](CC(C)C)NC(=O)[C@H](Cc1ccc(O)cc1)NC(=O)[C@H](CCCCN)NC(=O)[C@H](CO)NC(=O)[C@@H](NC(=O)[C@H](CC(=O)O)NC(=O)[C@H](CO)NC(=O)[C@@H](NC(=O)[C@H](Cc1ccccc1)NC(=O)[C@@H](NC(=O)CNC(=O)[C@H](Cc1c[nH]cn1)NC(=O)C(C)(C)NC(=O)CCc1c[nH]cn1)[C@@H](C)O)[C@@H](C)O)C(C)C)C(=O)N[C@@H](C)C(=O)N[C@@H](Cc1c[nH]c2ccccc12)C(=O)N[C@@H](CC(C)C)C(=O)N[C@@H](CC(C)C)C(=O)N[C@@H](CCCCNC(=O)COCCOCCNC(=O)COCCOCCNC(=O)CC[C@H](NC(=O)CC[C@H](NC(=O)CCCCCCCCCCCCCCCCC(=O)O)C(=O)O)C(=O)O)C(=O)N[C@H](C(N)=O)[C@@H](C)O` [NN1359] (Desaminohistidyl-[Aib]HGTFTSDVSKYLEEQAAREFIAWLLK([AEEA-AEEA-γGlu-γGlu-C18 diacid])T-NH2): the IC50 on Human GLP-1R is 0.84 nM; on Human GCGR, 7.54 nM; at Mouse GLP-1R, 0.37 nM; at Rat GLP-1R it was 2.06 nM.
